Data from ChEMBL document CHEMBL3588852, “Gastroprotective activity of ent-beyerene derivatives in mice: Effects on gastric secretion, endogenous prostaglandins and non-protein sulfhydryls” (Bioorg Med Chem Lett, 2015).

Columns and labels:
[1] = Cytotoxic activity against human fibroblasts assessed as reduction in cell viability incubated for 48 hrs by MTT assay; assay type: cell-based; settings: Fibroblast
AGS = assay: Cytotoxic activity against human AGS cells assessed as reduction in cell viability incubated for 48 hrs by MTT assay; assay type: cell-based
Mus musculus [2] = assay: Gastroprotective activity in Swiss albino mouse model of HCl/EtOH-induced lesion assessed as inhibition of gastric lesions at 50 mg/kg, po dosed 50 mins before HCl/EtOH challenge and measured 1 hr post HCl/EtOH challenge; assay type: functional; settings: Stomach
Mus musculus [3] = assay: Gastroprotective activity in Swiss albino mouse model of HCl/EtOH-induced lesion assessed as inhibition of gastric lesions at 12.5 to 100 mg/kg, po dosed 50 mins before HCl/EtOH challenge and measured 1 hr post HCl/EtOH challenge; assay type: functional; settings: Stomach
Mus musculus [4] = assay: Gastroprotective activity in Swiss albino mouse model of HCl/EtOH-induced lesion assessed as inhibition of gastric lesions at 100 mg/kg, po dosed 50 mins before HCl/EtOH challenge and measured 1 hr post HCl/EtOH challenge; assay type: functional; settings: Stomach
Mus musculus [5] = assay: Gastroprotective activity in Swiss albino mouse model of HCl/EtOH-induced lesion assessed as gastric lesion index at 70 mg/kg, po dosed 50 mins before HCl/EtOH challenge and measured 1 hr post HCl/EtOH challenge (reference value: 42 +/- 1.9 mm); assay type: functional, Stomach
Mus musculus [6] = assay: Gastroprotective activity in Swiss albino mouse model of HCl/EtOH-induced lesion assessed as gastric lesion index at 10 mg/kg, po dosed 50 mins before HCl/EtOH challenge and measured 1 hr post HCl/EtOH challenge (reference value: 42 +/- 1.9 mm); assay type: functional, Stomach
Mus musculus [7] = assay: Gastroprotective activity in Swiss albino mouse model of HCl/EtOH-induced lesion assessed as gastric lesion index at 100 mg/kg, po dosed 50 mins before HCl/EtOH challenge and measured 1 hr post HCl/EtOH challenge (reference value: 42 +/- 1.9 mm); assay type: functional, Stomach
Mus musculus [8] = assay: (§1) Gastroprotective activity in Swiss albino mouse model of HCl/EtOH-induced lesion pre-treated with 3.5 mg/kg vanilloid receptor antagonist ruthenium red assessed as gastric lesion index at 50 mg/kg, po dosed 50 mins before HCl/EtOH challenge and measured 1 hr post HCl/EtOH challenge (reference value: 12.1 +/- 2.5 mm); assay type: functional, Stomach
Mus musculus [9] = assay: Gastroprotective activity in Swiss albino mouse model of HCl/EtOH-induced lesion assessed as gastric lesion index at 50 mg/kg, po dosed 50 mins before HCl/EtOH challenge and measured 1 hr post HCl/EtOH challenge (reference value: 42 +/- 1.9 mm); assay type: functional, Stomach
Mus musculus [10] = assay: as §1, with “70” for “3.5”, “NO synthase inhibitor L-NAME” for “vanilloid receptor antagonist ruthenium red”; assay type: functional, Stomach
Mus musculus [11] = assay: as §1, with “10” for “3.5”, “prostaglandin synthesis inhibitor indomethacin” for “vanilloid receptor antagonist ruthenium red”; assay type: functional, Stomach
Mus musculus [12] = assay: Gastroprotective activity in Swiss albino mouse model of HCl/EtOH-induced lesion pre-treated with 10 mg/kg sulfhydryl inhibitor NEM assessed as gastric lesion index at 50 mg/kg, po dosed 50 mins before HCl/EtOH challenge and measured 1 hr post HCl/EtOH challenge (reference value: 12.1 +/- 2.5 mm); assay type: functional, Stomach
Mus musculus [13] = assay: Gastroprotective activity in Swiss albino mouse model of HCl/EtOH-induced lesion assessed as inhibition of gastric lesions at 20 mg/kg, po dosed 50 mins before HCl/EtOH challenge and measured 1 hr post HCl/EtOH challenge; assay type: functional; settings: Stomach

| Structure (SMILES) | IC50 [1] [µM] | IC50 (AGS) [µM] | inhibition in vivo at 50 mg/kg (Mus musculus [2]) [%] | further results |
| --- | --- | --- | --- | --- |
| C[C@]12C=C[C@@]3(CC[C@@H]4[C@@](C)(COC(=O)/C=C/c5ccc(Cl)cc5)CCC[C@@]4(C)[C@@H]3CC1)C2 | 29 | 18 | 42 |  |
| CCCCCCCCCCCCCCCC(=O)OC[C@@]1(C)CCC[C@]2(C)[C@@H]1CC[C@@]13C=C[C@@](C)(CC[C@H]12)C3 | 88 | 64 | 46 |  |
| C[C@]12C=C[C@@]3(CC[C@@H]4[C@@](C)(CO)CCC[C@@]4(C)[C@@H]3CC1)C2 | 31 | 19 | 53 | ED50 (Mus musculus [3]): 50 mg/kg; inhibition (Mus musculus [3]): Dose-dependent effect; inhibition in vivo at 100 mg/kg (Mus musculus [4]): 79% |
| COC(=O)[C@@H](N)CCCNC(=N)N[N+](=O)[O-] [L-NAME] |  |  |  | Activity (Mus musculus [5]): 42.7 mm |
| COc1ccccc1/C=C/C(=O)OC[C@@]1(C)CCC[C@]2(C)[C@@H]1CC[C@@]13C=C[C@@](C)(CC[C@H]12)C3 | 311 | 151 | 7 |  |
| C[C@]12C=C[C@@]3(CC[C@@H]4[C@@](C)(COC(=O)/C=C/c5ccc(F)cc5)CCC[C@@]4(C)[C@@H]3CC1)C2 | 69 | 58 | 24 |  |
| CCN1C(=O)C=CC1=O [N-ETHYLMALEIMIDE] |  |  |  | Activity (Mus musculus [6]): 41.9 mm |
| Cc1ccc(/C=C/C(=O)OC[C@@]2(C)CCC[C@]3(C)[C@@H]2CC[C@@]24C=C[C@@](C)(CC[C@H]23)C4)cc1 | 49 | 39 | 8 |  |
| COc1cccc(/C=C/C(=O)OC[C@@]2(C)CCC[C@]3(C)[C@@H]2CC[C@@]24C=C[C@@](C)(CC[C@H]23)C4)c1 | 289 | 165 | 4 |  |
| COc1ccc2c(c1)c(CC(=O)O)c(C)n2C(=O)c1ccc(Cl)cc1 [INDOMETHACIN] |  |  |  | Activity (Mus musculus [6]): 39.9 mm |
| CC1(C)[C@@H](OC(=O)CCC(=O)O)CC[C@]2(C)[C@H]3C(=O)C=C4[C@@H]5C[C@@](C)(C(=O)O)CC[C@]5(C)CC[C@@]4(C)[C@]3(C)CC[C@@H]12 [CARBENOXOLONE] |  |  |  | Activity (Mus musculus [7]): 13.1 mm |
| C[C@]12C=C[C@@]3(CC[C@@H]4[C@@](C)(COC(=O)/C=C/c5ccccc5[N+](=O)[O-])CCC[C@@]4(C)[C@@H]3CC1)C2 | 38 | 25 | 14 |  |
| C[C@]12C=C[C@@]3(CC[C@@H]4[C@@](C)(COC(=O)/C=C/c5ccc([N+](=O)[O-])cc5)CCC[C@@]4(C)[C@@H]3CC1)C2 | 61 | 35 | 0 |  |
| C[C@]12C=C[C@@]3(CC[C@@H]4[C@@](C)(COC(=O)/C=C/c5ccccc5)CCC[C@@]4(C)[C@@H]3CC1)C2 | 45 | 30 | 68 |  |
| CCCCCCCCCCCCCC(=O)OC[C@@]1(C)CCC[C@]2(C)[C@@H]1CC[C@@]13C=C[C@@](C)(CC[C@H]12)C3 | 61 | 38 | 46 |  |
| CCCCCCCCCCCCCCCCCC(=O)OC[C@@]1(C)CCC[C@]2(C)[C@@H]1CC[C@@]13C=C[C@@](C)(CC[C@H]12)C3 | 359 | 228 | 44 |  |
| C[C@]12C=C[C@@]3(CC[C@@H]4[C@@](C)(COC(=O)/C=C/c5cccc(Cl)c5)CCC[C@@]4(C)[C@@H]3CC1)C2 | 15 | 12 | 77 | Activity (Mus musculus [8]): 17 mm; Activity (Mus musculus [9]): 12.1 mm; Activity (Mus musculus [10]): 13.1 mm; Activity (Mus musculus [11]): 38.9 mm; Activity (Mus musculus [12]): 15.2 mm |
| CCCCCCCCCC(=O)OC[C@@]1(C)CCC[C@]2(C)[C@@H]1CC[C@@]13C=C[C@@](C)(CC[C@H]12)C3 | 33 | 21 | 52 |  |
| CCCCCCCCCCCC(=O)OC[C@@]1(C)CCC[C@]2(C)[C@@H]1CC[C@@]13C=C[C@@](C)(CC[C@H]12)C3 | 52 | 33 | 51 |  |
| COc1ccc(/C=C/C(=O)OC[C@@]2(C)CCC[C@]3(C)[C@@H]2CC[C@@]24C=C[C@@](C)(CC[C@H]23)C4)cc1 | 378 | 230 | 11 |  |
| CCCCCCCCCCCCCCCCCCCC(=O)OC[C@@]1(C)CCC[C@]2(C)[C@@H]1CC[C@@]13C=C[C@@](C)(CC[C@H]12)C3 | 581 | 321 | 34 |  |
| C[C@]12C=C[C@@]3(CC[C@@H]4[C@@](C)(COC(=O)/C=C/c5cccc([N+](=O)[O-])c5)CCC[C@@]4(C)[C@@H]3CC1)C2 | 44 | 29 | 2 |  |
| Cc1c(OCC(F)(F)F)ccnc1C[S+]([O-])c1nc2ccccc2[nH]1 (stereo not given) [LANSOPRAZOLE] | 291 | 149 | 65 | inhibition in vivo at 20 mg/kg (Mus musculus [13]): 57% |
